Source: patent US20250059217A1, “HETEROCYCLIC COMPOUNDS AND METHODS OF PREPARATION THEREOF” (priority 2021, published 2025)
Where a name gives a salt, the structure may show the parent alone. Read-outs that look alike come from different tables or passages of the source.

Experiments:
5-HT2C receptor = target: T1, 5-HT2C receptor (Homo sapiens, UniProt P28335); test: cell-based
T1 construct: expressed in transfected cells; host or cells: HEK293T
T1 sequence (P28335 33-458): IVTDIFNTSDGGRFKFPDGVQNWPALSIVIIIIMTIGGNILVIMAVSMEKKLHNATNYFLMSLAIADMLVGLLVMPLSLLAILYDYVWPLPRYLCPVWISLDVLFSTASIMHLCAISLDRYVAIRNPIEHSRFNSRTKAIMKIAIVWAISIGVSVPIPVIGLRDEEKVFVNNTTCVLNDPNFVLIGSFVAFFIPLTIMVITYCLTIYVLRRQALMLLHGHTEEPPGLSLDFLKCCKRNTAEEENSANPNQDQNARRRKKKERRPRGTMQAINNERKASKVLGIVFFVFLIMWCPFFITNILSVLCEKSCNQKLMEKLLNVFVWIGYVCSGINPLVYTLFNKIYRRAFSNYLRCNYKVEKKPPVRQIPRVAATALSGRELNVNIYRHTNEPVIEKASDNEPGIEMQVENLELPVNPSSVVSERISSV

5-HT2A receptor = target: T2, 5-HT2A receptor (Homo sapiens, UniProt P28223); test: Serotonin receptor 5-HT2 functional assay (Gq dissociation BRET or Gq-dependent calcium flux), 5-HT2A; assay type: cell-based; conditions: for 5-HT2A BRET Eff %: efficacy relative to 4-hydroxytryptamine
T2 construct: expressed in transfected cells; host or cells: HEK293T

5-HT2B receptor = target: T3, 5-HT2B receptor (Homo sapiens, UniProt P41595); test: Serotonin receptor 5-HT2 functional assay (Gq dissociation BRET or Gq-dependent calcium flux), 5-HT2B; assay type: cell-based; conditions: Table 4, at least three replicate trials; for 5-HT2B BRET Eff %: efficacy relative to 4-hydroxytryptamine; for 5-HT2B BRET EC50 (nM) / EC50: relative to 4-hydroxytryptamine
T3 construct: expressed in transfected cells; host or cells: HEK293T

[1] = Table 4, at least three replicate trials
[2] = Table 4, efficacy relative to 4-hydroxytryptamine, at least three replicate trials
[3] = Table 4, relative to 4-hydroxytryptamine, at least three replicate trials, read-out: 5-HT2C BRET EC50
[4] = Table 4, relative to 4-hydroxytryptamine, at least three replicate trials, read-out: 5-HT2A BRET EC50
[5] = Table 4, relative to 4-hydroxytryptamine, at least three replicate trials

T3 sequence (P41595 whole entry): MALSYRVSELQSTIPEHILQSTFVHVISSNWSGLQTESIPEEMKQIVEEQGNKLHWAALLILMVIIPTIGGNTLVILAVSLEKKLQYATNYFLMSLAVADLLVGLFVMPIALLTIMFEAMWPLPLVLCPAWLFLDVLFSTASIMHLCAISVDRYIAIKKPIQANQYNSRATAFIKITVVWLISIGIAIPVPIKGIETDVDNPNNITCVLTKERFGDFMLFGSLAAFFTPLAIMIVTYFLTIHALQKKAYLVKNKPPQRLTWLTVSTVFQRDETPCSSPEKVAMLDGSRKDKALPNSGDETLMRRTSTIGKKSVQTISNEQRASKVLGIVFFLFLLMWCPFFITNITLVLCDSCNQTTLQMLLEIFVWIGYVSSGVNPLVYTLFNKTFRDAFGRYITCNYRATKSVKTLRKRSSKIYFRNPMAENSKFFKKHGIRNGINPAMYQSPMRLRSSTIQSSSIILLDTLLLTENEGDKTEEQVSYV
T2 sequence (P28223 whole entry): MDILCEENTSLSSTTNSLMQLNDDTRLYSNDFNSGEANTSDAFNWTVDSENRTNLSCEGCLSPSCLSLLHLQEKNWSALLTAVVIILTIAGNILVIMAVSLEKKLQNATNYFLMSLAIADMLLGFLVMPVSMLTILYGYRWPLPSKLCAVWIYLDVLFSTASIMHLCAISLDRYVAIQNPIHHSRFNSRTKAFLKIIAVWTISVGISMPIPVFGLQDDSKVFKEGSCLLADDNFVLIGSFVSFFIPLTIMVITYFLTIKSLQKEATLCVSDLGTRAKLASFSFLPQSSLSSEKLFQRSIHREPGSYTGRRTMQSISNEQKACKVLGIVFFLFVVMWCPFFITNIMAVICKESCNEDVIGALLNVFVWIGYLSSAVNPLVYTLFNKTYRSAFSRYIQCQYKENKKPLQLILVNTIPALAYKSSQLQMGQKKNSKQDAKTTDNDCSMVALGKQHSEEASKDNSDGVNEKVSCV

SMILES | 5-HT2C BRET Eff % (5-HT2C receptor) | EC50 (5-HT2C receptor) | EC50 (5-HT2A receptor) | 5-HT2A BRET Eff % (5-HT2A receptor; [1]) | 5-HT2B BRET Eff % (5-HT2B receptor) | 5-HT2B BRET EC50 (nM) (5-HT2B receptor) | 5-HT2C BRET Eff % (5-HT2C receptor; [2]) | EC50 (5-HT2C receptor; [3]) | EC50 (5-HT2A receptor; [4]) | EC50 (5-HT2B receptor; read-out: 5-HT2B BRET EC50) | EC50 (5-HT2B receptor; 5-HT2B BRET EC50 (nM)) | 5-HT2A BRET EC50 (nM) (5-HT2A receptor; [5])
CN(C)CCc1c[nH]c2c(C#N)ccc(O)c12 [Compound 64, 3-[2-(Dimethylamino)ethyl]-4-hydroxyindole-7-carbonitrile] | 79% | 0.088 µM | 0.267 µM | 49% | inactive | inactive | – | – | – | – | – | –
CN(C)CCc1cn2c3c(cccc13)OCC2 [Compound 135, [2-(2,3-Dihydro-[1,4]oxazino[2,3,4-hi]indol-6-yl)ethyl]dimethylamine Hydrochloride] | – | – | – | 76% | 42% | – | 96% | 0.009 µM | 0.767 µM | 10.7 nM | – | –
Cc1ccc(O)c2c(C[C@H]3CCN3C)c[nH]c12 [Compound 77, 7-Methyl-3-[((S)-1-methylazetidin-2-yl)methyl]indol-4-ol] | – | – | – | 69% | 41% | – | 66% | 0.0073 µM | 0.049 µM | 57 nM | – | –
Cc1ccc(O)c2c(CCN(C)C(C)C)c[nH]c12 [Compound 16, 3-[2-[Isopropyl(methyl)amino]ethyl]-7-methylindol-4-ol] | 103% | 0.053 µM | 0.15 µM | 77% | inactive | inactive | – | – | – | – | – | –
Cc1cc2c(c3c(CCN)c[nH]c13)CCCO2 [Compound 110] | – | – | – | 91% | 63% | – | 96% | 0.069 µM | 0.277 µM | 139 nM | – | –
COc1ccc(C)c2[nH]cc(CCN(C)C)c12 [Compound 26, [2-(4-Methoxy-7-methylindol-3-yl)ethyl]dimethylamine] | 113% | 0.0035 µM | 0.095 µM | 68% | inactive | inactive | – | – | – | – | – | –
CC(C)c1ccc(O)c2c(CCN(C)C)c[nH]c12 [Compound 10, 3-[2-(Dimethylamino)ethyl]-7-isopropylindol-4-ol] | 60% | 0.034 µM | 1.07 µM | 40% | inactive | inactive | – | – | – | – | – | –
Cc1c(F)cc(O)c2c(CCN(C)C)c[nH]c12 [Compound 33, 3-[2-(Dimethylamino)ethyl]-6-fluoro-7-methylindol-4-ol] | 102% | 0.0014 µM | 0.02 µM | 78% | inactive | inactive | – | – | – | – | – | –
CN(C)CCc1c[nH]c2cccc(O)c12 [psilocin, reference compound] | – | – | – | 82% | 63% | – | – | – | – | – | – | –
Cc1ccc(O)c2c(CCN(C)C)c[nH]c12 [Compound 1, 3-[2-(Dimethylamino)ethyl]-7-methylindol-4-ol] | 79% | 0.0069 µM | 0.066 µM | 72% | inactive | inactive | – | – | – | – | – | –
CCc1ccc(O)c2c(CCN(C)C)c[nH]c12 [Compound 9, 3-[2-(Dimethylamino)ethyl]-7-ethylindol-4-ol] | 67% | 0.028 µM | 0.154 µM | 78% | inactive | inactive | – | – | – | – | – | –
NCCc1c[nH]c2cccc(O)c12 [4-hydroxytryptamine, reference compound] | 99% | 0.00035 µM | – | 100% | 100% | – | – | – | 0.0029 µM | 0.8 nM | – | –
CN(C)CCc1c[nH]c2cc(F)cc(O)c12 [Compound 36, 3-[2-(Dimethylamino)ethyl]-6-fluoroindol-4-ol] | 93% | 0.0017 µM | 0.0029 µM | 92% | 62% | – | – | – | – | – | 4.2 nM | –
CN(C)CCc1c[nH]c2c(C(N)=O)ccc(O)c12 [Compound 65, 3-[2-(Dimethylamino)ethyl]-4-hydroxyindole-7-carboxamide] | – | – | – | inactive | inactive | inactive | 69% | 9.96 µM | – | – | – | inactive
COc1cc(F)c(C)c2[nH]cc(CCN(C)C)c12 [Compound 34, [2-(6-Fluoro-4-methoxy-7-methylindol-3-yl)ethyl]dimethylamine] | 94% | 0.0018 µM | 0.0169 µM | 84% | inactive | inactive | – | – | – | – | – | –
Cc1cc(F)c(O)c2c(CCN(C)C)c[nH]c12 [Compound 30] | – | – | – | 64% | 8% | – | – | – | – | – | – | –
CC(C)c1ccc(O)c2c(CCN(C)C)cn(C)c12 [Compound 11, 3-[2-(Dimethylamino)ethyl]-7-isopropyl-1-methylindol-4-ol] | 88% | 0.022 µM | 1.16 µM | 66% | inactive | inactive | – | – | – | – | – | –
Cc1ccc(O)c2c(CCN(C)C3CC3)c[nH]c12 [Compound 17] | 111% | 0.0032 µM | 0.0129 µM | 54% | inactive | inactive | – | – | – | – | – | –
Cc1cc(O)c2c(CCN(C)C)c[nH]c2c1 [Compound 37, 3-[2-(Dimethylamino)ethyl]-6-methylindol-4-ol] | 95% | 0.0015 µM | 0.059 µM | 88% | 41% | – | – | – | – | – | 189 nM | –
Cc1cccc2c(CCN(C)C)c[nH]c12 [7,N,N-TMT] | – | – | 0.232 µM | 80% | 36% | – | 79% | 0.0117 µM | – | – | 74 nM | –
CN(C)CCc1c[nH]c2c(CCF)ccc(O)c12 [Compound 8, 3-[2-(Dimethylamino)ethyl]-7-(2-fluoroethyl)indol-4-ol] | 56% | 3.93 µM | – | inactive | inactive | inactive | – | – | – | – | – | inactive
Cc1ccc(OCc2ccc(C(F)(F)F)cc2)c2c(CCN(C)C)c[nH]c12 [Compound 39, Dimethyl[2-[7-methyl-4-[4-(trifluoromethyl)benzyloxy]indol-3-yl]ethyl]amine] | – | – | – | 90% | inactive | inactive | 81% | 0.131 µM | 7.66 µM | – | – | –
Cc1ccc(OP(=O)(O)O)c2c(CCN(C)C)c[nH]c12 [Compound 24] | 69% | 0.37 µM | 1.15 µM | 69% | inactive | inactive | – | – | – | – | – | –
CCN(C)CCc1c[nH]c2c(C)ccc(O)c12 [Compound 14] | 108% | 0.0042 µM | 0.082 µM | 63% | inactive | inactive | – | – | – | – | – | –
